For this experiment, the system named is human astrocytes (HA). The experiment can be described thus: LCN2 expression (qRT-PCR) in human astrocytes stimulated with IL-1β. It is filed as cell-based. To be noted: 1 ng/mL or 10 ng/mL IL-1β, 20 h. Here is the method: In order to compare the structure and function of human astrocytes (HA) in 2D and 3D cultures, HAs were seeded at a density of 1×10^6 cells/mL in Matrigel (Growth factor-reduced; Corning, NY, USA) coated 24-wells and in 3D Matrigel (5 mg/mL). After 1 day of culture, cells were stimulated with 1 ng/mL or 10 ng/mL of recombinant human interleukin-1-beta (IL-1β; Gibco, Grand Island, NY, USA) and incubated for another 20 h for analysis.
The gene expression level of the reactive gliosis marker in 2D or 3D cultured human astrocytes (HA) was confirmed through qRT-PCR analysis. To analyze glial reactivity of HA in 2D and 3D culture system (n=4), standard qRT-PCR was performed with a StepOnePlus Real-Time PCR system (Applied Biosystems) using TaqMan Fast Universal PCR Master Mix (Applied Biosystems). The target genes were assessed using commercially available primers, and the primers used in the experiment are shown in Table 2 below.
In general terms: Real-time PCR tracks product formation cycle by cycle.

For the substance “IL-1β: recombinant human interleukin-1-beta, an inflammatory cytokine”, the “expression level of LCN2” value by setting is: (HA inside 3D Matrigel, FIG. 41) “dose-dependently controlled”; (HA on 2D Matrigel-coated surface, FIG. 40) “dose-dependently controlled”.
